≈ marks a conversion by molar mass, not a printed value. Where two headings read alike, the source gives them in different places. Where no end group is shown, it is not given here.
Assays:
Type in all cases: cell-based
[1] = tested on: Aeromonas salmonicida ATCC33658; experiment: microbe, parasite or virus in culture; settings: for MIC: Aeromonas salmonicida
Description: (§1) All strains were grown in Mueller-Hinton-II medium, except L. monocytogenes which was grown in BHI medium and L. lactis which was grown in MRS medium. Incubation took place aerobically at 37°C, except for Y. ruckeri and A. salmonicida, which were grown aerobically at RT (20 °C), and L. lactis grown aerobically at 30°C. All plates were incubated for 16–21 hours.
(§2) The minimum inhibitory concentrations (MICs) of the AMPs were measured in 96-well microtiter plates according the Clinical and Laboratory Standards Institute (CLSI, formerly National Committee for Clinical Laboratory Standards [NCCLS]). Briefly, liquid Mueller-Hinton-II medium containing increasing concentrations of AMPs is inoculated with a defined number of cells (approx. 10^5 CFUs/ml) in 96-well microtiter plates (polypropylene), whereas each plate also includes a positive growth control and a negative control (sterile control). The range of peptide concentrations analyzed was 0.125–64 μg/ml for the high purity peptides and 0.06–32 μg/ml for peptides of the variant library. After incubation, the MIC is determined by the lowest concentration showing no visible growth. All plates were incubated for 16–20 hours. The MIC of the reference antibiotics was determined by the use of Sensititre panels (Trek Diagnostic Systems Ltd, East Grinstead, UK).

[2] = tested on: Salmonella enterica serovar Typhimurium LT2; experiment: microbe, parasite or virus in culture; settings: for MIC S. Typhimurium / MIC S. Typhimurium LT2: LT2; for MIC: Salmonella enterica, TYPHIMURIUM, read-out: MIC Salmonella Typhimurium LT2
Description: as §1, §2

[3] = tested on: Yersinia ruckeri 392/2003; experiment: microbe, parasite or virus in culture; settings: for MIC: Yersinia ruckeri, 392/2003, read-out: MIC Yersinia ruckeri 392/2003
Description: as §1, §2

[4] = tested on: Enterococcus faecalis ATCC29212
Description: as §1, §2

[5] = tested on: Escherichia coli ATCC25922
Description: as §1, §2

[6] = tested on: Lactococcus lactis IL1403
Description: as §1, §2

[7] = tested on: Listeria monocytogenes N22-2
Description: as §1, §2

[8] = tested on: Pseudomonas aeruginosa ATCC27853
Description: as §1, §2

[9] = ATCC33658, read-out: MIC Aermononas salmonicida ATCC33658
[10] = standard antibiotics, Sensititre panels, triplicates, ≤ = sensitive to lowest concentration in plate

| Compound | MIC A. salmonicida ([1]; ATCC33658) | MIC A. salmonicida ATCC33658 ([1]; ATCC33658) | MIC S. Typhimurium [2] | MIC S. Typhimurium LT2 [2] | MIC Y. ruckeri [3] | MIC Y. ruckeri 392/2003 [3] | MIC E. faecalis ATCC29212 [4] | MIC E. coli ATCC25922 [5] | MIC L. lactis IL1403 [6] | MIC L. monocytogenes N22-2 [7] | MIC P. aeruginosa ATCC27853 [8] | also measured |
| --- | --- | --- | --- | --- | --- | --- | --- | --- | --- | --- | --- | --- |
| GLRKRLRKFRNKIKEKLKKIGQKIQGPLPKLAPRTDY [Peptide 31] | 16 µg/mL | 16 µg/mL | 4 µg/mL | 8 µg/mL | 16 µg/mL | 32 µg/mL | ≥64 µg/mL | ≥64 µg/mL | 32 µg/mL | 32 µg/mL | 8 µg/mL |  |
| GLRKRLRKFRNKIKEKKKKIGQKIQGLLPKLAPRTDY [Peptide 17] | 4 µg/mL | 16 to 32 µg/mL | 4 µg/mL | 16 µg/mL |  | ≥64 µg/mL | ≥64 µg/mL | ≥64 µg/mL | ≥64 µg/mL | 16 to 32 µg/mL | 8 µg/mL |  |
| GLRKRLRKFRNKIKEKLKKIGQKHQGLLPKLAPRTDY [Peptide I24H] | 8 µg/mL |  | 8 µg/mL |  |  |  |  |  |  |  |  |  |
| GLRKRLRKFRNKIKELLKKIGQKIQGLLPKLAPRTDY [Peptide 13] | 4 µg/mL | 16 µg/mL | 4 µg/mL | 16 µg/mL | 4 µg/mL | 16 µg/mL | 16 µg/mL | 16 µg/mL | ≥64 µg/mL | 8 to 16 µg/mL | 16 to 32 µg/mL |  |
| GLRKRLRKFRNKSKEKLKKIGQKIQGLLPKLAPRTDY [Peptide 8] | 2 µg/mL | 4 µg/mL | 4 µg/mL | 8 µg/mL |  | 8 to 16 µg/mL | ≥64 µg/mL | 16 µg/mL | ≥64 µg/mL | 32 µg/mL | 8 to 16 µg/mL | MIC L. lactis [6]: 8 µg/mL |
| GLRKRLRKFRNKIKEKLKKICQKIQGLLPKLAPRTDY [Peptide 23] | 4 µg/mL | 16 to 32 µg/mL | 8 µg/mL | 16 µg/mL | 4 µg/mL | 16 µg/mL | 32 µg/mL | 16 µg/mL | ≥64 µg/mL | 16 µg/mL | 32 µg/mL |  |
| GLRKRLRKFRNKIKEKLKKIGQKIQGLLPKLAPRHDY [Peptide T35H] | 2 µg/mL |  |  |  | 2 µg/mL |  |  |  |  |  |  | MIC L. lactis [6]: 8 µg/mL |
| GLRKRLRKFRNKIKEKLPKIGQKIQGLLPKLAPRTDY [Peptide 19] | 2 µg/mL | 2 to 4 µg/mL | 4 µg/mL | 4 µg/mL |  | 32 µg/mL | ≥64 µg/mL | 8 to 16 µg/mL | 32 µg/mL | 32 to 64 µg/mL | 16 µg/mL |  |
| GLRKRPRKFRNKIKEKLKKIGQKIQGLLPKLAPRTDY [Peptide 1] | 8 µg/mL | 8 to 16 µg/mL | 4 µg/mL | 8 µg/mL |  | 64 µg/mL | 32 µg/mL | 8 µg/mL | ≥64 µg/mL | 32 µg/mL | ≥64 µg/mL | MIC L. lactis [6]: 8 µg/mL |
| GLRKRLRKFRNKNKEKLKKIGQKIQGLLPKLAPRTDY [Peptide I13N] | 8 µg/mL |  | 8 µg/mL |  |  |  |  |  |  |  |  |  |
| CCn1cc(C(=O)O)c(=O)c2ccc(C)nc21 [Nalidixic acid, reference compound] |  |  |  |  |  |  |  |  |  |  |  | MIC [1, 9]: ≤ 4 µg/mL; MIC [2]: ≤ 4 µg/mL; MIC [3]: 32 µg/mL (≈ 138 µM) |
| GLRKRLRKFRNKIKEKLKKIGQKIQTLLPKLAPRTDY [Peptide 30] |  | 4 µg/mL |  | 4 to 8 µg/mL |  | 2 to 4 µg/mL | 8 µg/mL | 4 to 8 µg/mL | 2 µg/mL | 4 µg/mL | 8 µg/mL |  |
| GLRKRDRKFRNKIKEKLKKIGQKIQGLLPKLAPRTDY [Peptide L6D] | 16 µg/mL |  | 8 µg/mL |  |  |  |  |  |  |  |  | MIC L. lactis [6]: 16 µg/mL |
| GLRKRLRKFRNKIKEILKKIGQKIQGLLPKLAPRTDY [Peptide 12] | 4 µg/mL | 8 to 16 µg/mL | 4 µg/mL | 16 µg/mL | 4 µg/mL | 16 µg/mL | 16 µg/mL | 16 µg/mL | ≥64 µg/mL | 8 to 16 µg/mL | 16 µg/mL |  |
| GLRKRLRKFRNKIKEKCKKIGQKIQGLLPKLAPRTDY [Peptide L17C] | 8 µg/mL |  | 8 µg/mL |  |  |  |  |  |  |  |  |  |
| CC1(C)S[C@@H]2[C@H](NC(=O)[C@H](N)c3ccccc3)C(=O)N2[C@H]1C(=O)O [Ampicillin, reference compound] |  |  |  |  |  |  |  |  |  |  |  | MIC ([1]; ATCC33658, standard antibiotics, Sensititre panels, triplicates, ≤ = sensitive to lowest concentration in plate, read-out: MIC Aermononas salmonicida ATCC33658): ≤ 1 µg/mL; MIC [2, 10]: ≤ 1 µg/mL; MIC [3]: 2 µg/mL (≈ 5.72 µM) |
| GLRKRLRKFRNKIKEKLKKIGQKIQGLLPKCAPRTDY [Peptide L31C] | 4 µg/mL |  |  |  | 4 µg/mL |  |  |  |  |  |  | MIC L. lactis [6]: 8 µg/mL |
| GLRKRRRKFRNKIKEKLKKIGQKIQGLLPKLAPRTDY [Peptide L6R] | 16 µg/mL |  | 8 µg/mL |  | 16 µg/mL |  |  |  |  |  |  |  |
| CNC(C)C1CCC(N)C(OC2C(N)CC(N)C(OC3OCC(C)(O)C(NC)C3O)C2O)O1 (stereo not drawn) [Gentamicin, reference compound] |  |  |  |  |  |  |  |  |  |  |  | MIC [1, 9]: 1 µg/mL (≈ 2.09 µM); MIC [2]: 0.5 to 1 µg/mL (≈ 1.05 to 2.09 µM); MIC [3]: 1 to 2 µg/mL (≈ 2.09 to 4.19 µM) |
| GLRKRLRKFRNKIKEKLKKRGQKIQGLLPKLAPRTDY [Peptide I20R] | 16 µg/mL |  | 8 µg/mL |  | 16 µg/mL |  |  |  |  |  |  |  |
| GLRKRLRKFRNKIKEKLKKQGQKIQGLLPKLAPRTDY [Peptide I20Q] | 8 µg/mL |  | 8 µg/mL |  | 8 µg/mL |  |  |  |  |  |  |  |
| GLRKRLRKFRNKIKEKLKKIGQKIQGLLPKLAPRTDD [Peptide Y37D] | 2 µg/mL |  |  |  | 2 µg/mL |  |  |  |  |  |  | MIC L. lactis [6]: 8 µg/mL |
| Polymyxin E [reference compound] |  |  |  |  |  |  |  |  |  |  |  | MIC Aermononas salmonicida ATCC33658 [1, 10]: 2 µg/mL; MIC Salmonella Typhimurium LT2 [2, 10]: 2 µg/mL; MIC Yersinia ruckeri 392/2003 ([3]; standard antibiotics, Sensititre panels, triplicates): 1 to 2 µg/mL |
| GLRKRLRKFRNKIKEKHKKIGQKIQGLLPKLAPRTDY [Peptide L17H] | 8 µg/mL |  | 8 µg/mL |  |  |  |  |  |  |  |  |  |
| GLRKRLRKFRNKIKEKLKKIIQKIQGLLPKLAPRTDY [Peptide G21I] | 8 µg/mL |  | 8 µg/mL |  | 8 µg/mL |  |  |  |  |  |  |  |
